Data: US11306063B2, “Heterocyclic naphthoquinones derivatives for use in the treatment of cancers including Cushing disease” (Commissariat a l'Energie Atomique et aux Energies …, priority 2016, dated 2022)
Read-outs that look alike come from different tables or passages of the source.

Legend:
MESSA cells = assay: Cytotoxicity assay (PrestoBlue cell viability), MESSA; assay type: cell-based; settings: Homo sapiens, MES-SA; 48 hours treatment; concentration inducing 50% cell mortality
Procedure: (§1) Messa, Messa DX5, HCT116, HEK-293, PC-3, LNCaP, HCC827 and H1975 cell lines are issued from the American Type Culture Collection (ATCC).
(§2) Messa, Messa DX5 and HCT116 were maintained in McCoy's supplemented with 10% fetal bovine serum, and 1% penicillin/streptomycin. PC-3, LNCaP cells were maintained in RPMI medium supplemented with 10% fetal bovine serum, and 1% penicilin/streptomycin and in the case of Messa DX5: 500 nM Doxorubicin was added to maintain selection pressure. HEK293 were maintained in DMEM medium supplemented with 10% fetal bovine serum, and 1% penicillin/streptomycin. Cells were maintained at 37° C. with 5% CO2, 95% air, and humid atmosphere. In the case of hormonal dependent LNCaP cells, 2 μM DiHydroTestosterone (DHT) was added or not—depending on the type of biological assay—for the same incubation period as compounds.
(§3) For cytotoxicity assays, cells were seeded in 96-well microplates 24 hours before the addition of increasing concentrations of each compound in the culture medium. Cell viability was analyzed 48 hours following addition of each compound through the monitoring of mitochondrial […] activity using PrestoBlue® Cell Viability Reagent (Invitrogen; #A-13261). Paclitaxel was used as a control which is cytotoxic on various cancerous cells although not on chemoresistant MESSA DX5 lineage.

MESSA DX5 cells = assay: Cytotoxicity assay (PrestoBlue cell viability), MESSA DX5; assay type: cell-based, human; settings: for EC50: Homo sapiens, MES-SA/Dx5, 48 hours treatment, chemoresistant line
Procedure: as §1, §2, §3

[1] = biological target: T1, USP2^CD (purified catalytic domain of USP2) (Homo sapiens, UniProt O75604); assay: Inhibition of purified USP2^CD enzymatic activity (Ub-AMC or Ub-Rho substrate); assay type: biochemical; settings: for inhibition at 0.01 µM: 0.01 μM compound; for inhibition at 0.05 µM: 0.05 μM compound; for inhibition at 0.1 µM: 0.1 μM compound; for inhibition at 0.5 µM: 0.5 μM compound; for inhibition at 1 µM: 1 μM compound; for inhibition at 5 µM: 5 μM compound; for inhibition at 10 µM: 10 μM compound; for inhibition at 25 µM: 25 μM compound; for inhibition at 50 µM: 50 μM compound; for IC50: read-out: IC50 USP2 CD
T1 construct: The purified catalytic domain of USP2 (USP2^CD, in-house purified); His; made in house; host or cells: E. coli BL21 Gold
T1 sequence (O75604 267-599 limits assumed): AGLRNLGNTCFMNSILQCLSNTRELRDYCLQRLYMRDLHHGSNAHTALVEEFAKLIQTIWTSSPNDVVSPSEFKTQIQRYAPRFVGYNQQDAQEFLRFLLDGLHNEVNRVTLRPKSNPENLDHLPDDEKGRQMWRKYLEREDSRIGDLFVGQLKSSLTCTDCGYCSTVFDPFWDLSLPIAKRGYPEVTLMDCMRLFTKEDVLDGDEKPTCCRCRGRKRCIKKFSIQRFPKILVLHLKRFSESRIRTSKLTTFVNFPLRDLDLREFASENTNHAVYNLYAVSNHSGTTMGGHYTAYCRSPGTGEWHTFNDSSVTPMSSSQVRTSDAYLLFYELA
Procedure: (§4) USP2CD or USP8CD were expressed in E. coli BL21 Gold. Cells were grown in LB Miller to mid-log phase and induced by addition of 0.5 mM IPTG for USP2CD for 5 h at 20° C., while 1 mM IPTG was added for USP8CD for 3 h at 37° C. Then, cells were harvested and frozen at −80° C.
For His-tagged USP2CD, cells were resuspended in buffer C (10 mM TRIS pH 8.0, 100 mM NaCl, 10 mM Imidazole) and lysed using a sonicator. The lysate was clarified by centrifugation and applied to Ni Sepharose6 Fast Flow resin (GE Healthcare). The resin was sequentially washed with buffer C, then with buffer C containing 50 mM Imidazole. Protein sample was eluted from the resin using buffer C containing 250 mM Imidazole. The eluted protein was buffer exchanged by gel-filtration on a Superdex 200 10/300 GL column (GE Healthcare) equilibrated in Buffer D (15 mM Bis-TRIS pH 6.0, 100 mM NaCl, 1 mM dithiothreitol (DTT)).
(§5) Enzymatic assay was performed in a HEPES buffer (50 mM pH7.6 1 mM DTT, 2% glycerol, 0.5 mM EDTA) or in a Tris buffer (40 mM pH7.4 1 mM DTT, 5% glycerol, 0.05 mg/ml BSA) respectively, following manufacturer's instructions. Compounds were added to the reaction mixture just prior to the substrate. The enzymatic reaction kinetics was monitored through the apparition of fluorescence due to the hydrolysis of the peptidyl Ub-AMC or Ub-Rho bound over 20 or 30 minutes.
(§6) Medium value out of duplicates is reported.

[2] = biological target: T2, USP8^CD (purified catalytic domain of USP8) (Homo sapiens, UniProt P40818); assay: Inhibition of purified USP8^CD enzymatic activity (Ub-AMC or Ub-Rho substrate); assay type: biochemical; settings: for inhibition at 0.01 µM: 0.01 μM compound; for inhibition at 0.05 µM: 0.05 μM compound; for inhibition at 0.1 µM: 0.1 μM compound; for inhibition at 0.5 µM: 0.5 μM compound; for inhibition at 1 µM: 1 μM compound; for inhibition at 5 µM: 5 μM compound; for inhibition at 10 µM: 10 μM compound; for inhibition at 25 µM: 25 μM compound; for inhibition at 50 µM: 50 μM compound; for IC50: read-out: IC50 USP8 CD
T2 construct: the purified catalytic domain of USP8 (USP8^CD, in-house purified); made in house; host or cells: E. coli BL21 Gold
T2 sequence (P40818 777-1109 limits assumed): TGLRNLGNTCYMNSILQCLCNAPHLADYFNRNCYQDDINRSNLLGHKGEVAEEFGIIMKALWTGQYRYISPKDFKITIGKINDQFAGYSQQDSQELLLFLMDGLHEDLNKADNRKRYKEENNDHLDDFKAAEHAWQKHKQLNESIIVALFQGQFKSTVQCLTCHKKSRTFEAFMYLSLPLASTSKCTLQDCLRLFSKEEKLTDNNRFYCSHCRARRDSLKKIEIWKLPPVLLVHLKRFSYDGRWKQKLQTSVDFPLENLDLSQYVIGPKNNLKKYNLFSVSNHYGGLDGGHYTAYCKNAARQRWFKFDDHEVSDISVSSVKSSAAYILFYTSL
Procedure: as §4
For His-tagged USP8CD, cells were resuspended in buffer A (50 mM TRIS pH 8.0, 500 mM NaCl, 2 mM Imidazole) and lysed using a sonicator. The lysate was clarified by centrifugation and applied to Ni Sepharose6 Fast Flow resin (GE Healthcare). The resin was sequentially washed first with buffer A containing 10 mM Imidazole then with buffer A containing 20 mM Imidazole, and finally with buffer A containing 50 mM Imidazole. Protein sample was eluted from the resin using buffer A containing 300 mM Imidazole. The eluted protein was buffer exchanged by gel-filtration on a Superdex 200 10/300 GL column (GE Healthcare) equilibrated in Buffer B (20 mM HEPES pH 7.5, 300 mM NaCl, 2 mM dithiothreitol (DTT)).
as §5, §6

HEK293 cells = assay: Cytotoxicity assay (PrestoBlue cell viability), HEK293; assay type: cell-based; settings: Homo sapiens, 48 hours treatment
Procedure: as §1, §2, §3

PC-3 cells = assay: Cytotoxicity assay (PrestoBlue cell viability), PC-3; assay type: cell-based; settings: Homo sapiens, 48 hours treatment
Procedure: as §1, §2, §3

LNCaP cells = assay: Cytotoxicity assay (PrestoBlue cell viability), LNCaP; assay type: cell-based; settings: Homo sapiens, 48 hours treatment
Procedure: as §1, §2, §3

H1975 cells = assay: Cytotoxicity assay (PrestoBlue cell viability), H1975; assay type: cell-based, human; settings: Homo sapiens, NCI-H1975, 48 h
Procedure: as §1, §3

[3] = Ub-AMC substrate at 1 μM, Table 2b
[4] = Ub-Rhodamine substrate at 0.1 μM, Table 2c

| SMILES | EC50 (MESSA cells) [nM] | EC50 (MESSA DX5 cells) [nM] | inhibition at 0.01 µM ([1]; Table 1c) [%] | inhibition at 0.05 µM ([1]; Table 1c) [%] | inhibition at 0.1 µM ([1]; Table 1c) [%] | inhibition at 0.5 µM ([1]; Table 1c) [%] | inhibition at 1 µM ([1]; Table 1b) [%] | inhibition at 1 µM ([1]; Table 1c) [%] | inhibition at 5 µM ([1]; Table 1c) [%] | inhibition at 10 µM ([1]; Table 1c) [%] | inhibition at 25 µM ([1]; Table 1b) [%] | inhibition at 50 µM ([1]; Table 1b) [%] | IC50 [1, 3] [nM] | inhibition at 0.01 µM ([2]; Table 1d) [%] | inhibition at 0.05 µM ([2]; Table 1d) [%] | inhibition at 0.1 µM ([2]; Table 1d) [%] | inhibition at 0.5 µM ([2]; Table 1d) [%] | inhibition at 1 µM ([2]; Table 1b) [%] | inhibition at 1 µM ([2]; Table 1d) [%] | inhibition at 5 µM ([2]; Table 1b) [%] | other results |
| --- | --- | --- | --- | --- | --- | --- | --- | --- | --- | --- | --- | --- | --- | --- | --- | --- | --- | --- | --- | --- | --- |
| CC(=O)O[C@H]1C(=O)[C@@]2(C)[C@H]([C@H](OC(=O)c3ccccc3)[C@]3(O)C[C@H](OC(=O)[C@H](O)[C@@H](NC(=O)c4ccccc4)c4ccccc4)C(C)=C1C3(C)C)[C@]1(OC(C)=O)CO[C@@H]1C[C@@H]2O [Paclitaxel, reference compound] | 1500 | > 100000 |  |  |  |  |  |  |  |  |  |  |  |  |  |  |  |  |  |  | MESSA-DX5 cells death (MESSA DX5 cells; high concentration (100 μM)): did not induce MESSA-DX5 cells death |
| COc1ccc(S(=O)(=O)Cc2nc3c(nc2CS(=O)(=O)c2ccc(OC)c(OC)c2)C(=O)c2ccccc2C3=O)cc1OC [OVM18] | 1300 | 2500 | -19 | -3 | 19 | -20 | 53 | 44 | 17 | 9 | 53 | 63 | > 10000 | 2 | 21 | -8 | 63 | 100 | 83 | 103 | inhibition at 5 µM ([2]; Table 1d): 77%; inhibition at 10 µM ([2]; Table 1d): 71%; inhibition at 25 µM ([2]; Table 1b): 96%; inhibition at 50 µM ([2]; Table 1b): 101%; IC50 [2, 3]: 500 nM; EC50 (HEK293 cells): 2500 nM; EC50 (PC-3 cells): 3000 nM; EC50 (LNCaP cells): 2100 nM; EC50 (H1975 cells): > 3000 nM |
| CCS(=O)(=O)Cc1nc2c(nc1CS(=O)(=O)CC)C(=O)c1ccccc1C2=O [VIN6075] | 3000 | > 3000 | 11 | 6 | -26 | 2 | 51 | 31 | 51 | 57 | 99 | 100 | 5000 | -15 | 24 | 12 | 51 | 85 | 86 | 102 | inhibition at 5 µM ([1]; Table 1b): 75%; IC50 [1, 4]: 600 nM; inhibition at 5 µM ([2]; Table 1d): 104%; inhibition at 10 µM ([2]; Table 1d): 110%; inhibition at 25 µM ([2]; Table 1b): 104%; inhibition at 50 µM ([2]; Table 1b): 106%; IC50 [2, 3]: 500 nM; IC50 [2, 4]: 80 nM; EC50 (HEK293 cells): > 3000 nM; EC50 (PC-3 cells): 3000 nM; EC50 (LNCaP cells): 2800 nM; EC50 (H1975 cells): > 3000 nM |
